{"source": "patent US5606020A", "about": "“6 (R)-l-erythro-5,6,7,8-tetrahydrobiopterin receptor” (Suntory Limited, priority 1991, dated 1997)", "key": {"6R-BH4 receptor [1]": {"molecular_target": "T1, 6R-BH4 receptor (Rattus norvegicus, UniProt P29476)", "T1 construct": "solubilized fraction of rat cerebellum; from tissue; host or cells: rat cerebellum, P2 membrane fraction solubilized with CHAPS (not purified)", "T1 sequence (P29476 whole entry)": "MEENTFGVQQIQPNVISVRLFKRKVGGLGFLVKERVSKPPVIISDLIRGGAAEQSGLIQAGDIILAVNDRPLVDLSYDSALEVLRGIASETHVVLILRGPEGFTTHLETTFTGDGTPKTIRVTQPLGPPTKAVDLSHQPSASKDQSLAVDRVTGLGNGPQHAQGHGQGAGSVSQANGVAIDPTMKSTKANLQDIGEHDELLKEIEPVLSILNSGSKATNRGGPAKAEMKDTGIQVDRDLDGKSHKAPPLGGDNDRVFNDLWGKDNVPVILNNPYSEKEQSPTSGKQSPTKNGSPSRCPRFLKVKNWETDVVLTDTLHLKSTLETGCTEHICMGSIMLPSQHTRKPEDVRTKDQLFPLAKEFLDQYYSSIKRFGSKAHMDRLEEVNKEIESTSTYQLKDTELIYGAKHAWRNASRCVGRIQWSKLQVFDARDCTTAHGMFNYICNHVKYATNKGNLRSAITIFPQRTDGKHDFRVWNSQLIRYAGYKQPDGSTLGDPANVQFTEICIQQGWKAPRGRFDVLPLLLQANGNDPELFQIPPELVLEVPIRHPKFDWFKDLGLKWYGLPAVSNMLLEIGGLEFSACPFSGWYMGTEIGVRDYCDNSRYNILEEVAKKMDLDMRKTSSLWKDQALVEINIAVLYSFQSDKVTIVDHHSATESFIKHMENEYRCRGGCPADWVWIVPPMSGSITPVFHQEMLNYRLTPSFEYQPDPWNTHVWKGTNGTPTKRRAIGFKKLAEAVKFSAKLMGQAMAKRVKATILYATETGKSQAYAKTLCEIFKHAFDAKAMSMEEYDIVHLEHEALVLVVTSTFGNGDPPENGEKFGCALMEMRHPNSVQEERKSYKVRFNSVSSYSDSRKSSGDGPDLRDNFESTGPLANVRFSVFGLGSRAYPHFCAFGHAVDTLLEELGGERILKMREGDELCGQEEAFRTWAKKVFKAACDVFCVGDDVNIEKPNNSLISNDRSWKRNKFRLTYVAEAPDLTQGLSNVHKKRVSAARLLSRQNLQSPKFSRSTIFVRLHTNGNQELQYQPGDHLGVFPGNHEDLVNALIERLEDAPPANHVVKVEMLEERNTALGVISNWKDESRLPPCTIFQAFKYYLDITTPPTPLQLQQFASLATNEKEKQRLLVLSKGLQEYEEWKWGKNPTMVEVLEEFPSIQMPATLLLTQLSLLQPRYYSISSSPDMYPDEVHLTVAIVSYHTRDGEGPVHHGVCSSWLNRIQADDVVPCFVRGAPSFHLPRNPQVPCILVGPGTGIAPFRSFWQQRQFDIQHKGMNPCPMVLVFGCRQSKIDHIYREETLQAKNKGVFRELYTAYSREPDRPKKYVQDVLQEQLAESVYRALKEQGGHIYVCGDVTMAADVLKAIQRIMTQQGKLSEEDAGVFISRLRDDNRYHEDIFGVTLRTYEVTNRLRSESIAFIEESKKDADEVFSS", "experiment": "Competitive binding test between various compounds and 13 nM [6-^3 H]6R-BH4, solubilized fraction of rat cerebellum", "conditions": "for affinity of the receptor to 6R-BH4 relative to its affinity to the compound (from IC50 data): 13 nM [6-^3 H]6R-BH4, solubilized fraction of rat cerebellum", "method": "The specificity of the receptor of the present invention in binding to 6R-BH4 can be confirmed by a competitive binding test with the use of various compounds at varying concentrations.\nIn this method, the above-mentioned compounds at varying concentrations (for example, biopterin as will be described in Example 6 hereinafter) are added as a ligand simultaneously with [6-^3 H]6R-BH4 to the reaction mixture and the reaction is performed. The ability of the receptor of the present invention to bind to 6R-BH4 will not be inhibited to any substantial extent by these ligands.\nBy using the solubilized fraction of rat cerebellum, a competitive binding test between various compounds at varying concentrations and 13 nM of [6-^3 H]6R-BH4 was carried out.\nAbout 0.3 mg (protein) of the solubilized fraction obtained in Example 3 was incubated together with 13 nM of [6-^3 H]6R-BH4 in a 200 μl solution of 50 mM Tris hydrochloride (pH 7.4), 100 mM NaCl, 10 mM MgCl2, 2 mM ascorbic acid and 6 mM cysteine at 37° C. for 10 minutes. Then 3 mg/ml (final concentration) of bovine γ-globulin and 15% (final concentration) of polyethylene glycol 6000 were added to cease the reaction.\nNext, the reaction mixture was cooled on ice for 10 minutes and then passed through a glass filter. After being washed 4 times with 4 ml portions of 8% polyethylene glycol and 10 mM Tris hydrochloride (pH 7.4), the filter was taken off and placed in a vial. 2 ml of ethanol and 8 ml of creasol (Nacalai Tesque) were added to the filter and the radioactivity on the filter was measured in a liquid scintillation counter.\nThe results thus obtained were referred to as total binding. Then various compounds at varying concentrations were added as a ligand simultaneously with [6-^3 H]6R-BH4 in the above procedure, and the reaction was effected."}, "6R-BH4 receptor [2]": {"molecular_target": "T1, 6R-BH4 receptor", "experiment": "Scatchard plot analysis of [6-^3 H]6R-BH4 binding to solubilized fraction of rat cerebellum", "method": "The Scatchard plot analysis may be carried out, for example, as follows. In an appropriate buffer solution, for example, 50 mM Tris hydrochloride (pH 7.4), 100 mM NaCl, 10 mM MgCl2, 2 mM ascorbic acid and 6 mM cysteine solution, a fraction containing the receptor solubilized with CHAPS is incubated with [6-^3 H]6R-BH4 at various concentrations under appropriate conditions, for example, at 37° C. for 10 minutes. Then the radioactivity is measured by a conventional method and plotted. From the plots, Kd (dissociation constant) and Bmax are determined and employed as indicators of the affinity.\nBy using a determined amount of the solubilized fraction of rat cerebellum, Scatchard plot analysis with regard to the solubilized receptor protein of the present invention was performed by the conventional method. […]\nThe reaction mixture was cooled on ice for 10 minutes and then filtered through a glass filter. […] 2 ml of ethanol and 8 ml of creasol (Nacalai Tesque) were added to the filter and the radioactivity on the filter was measured in a liquid scintillation counter.\nFIG. 4 is a graph showing the radioactivities which bound to the receptor when [6-^3 H]6R-BH4 was added at various concentrations to a determined amount of the solubilized receptor. […] Accordingly, the saturation of the specific binding can be calculated as the difference between the total and nonspecific bindings. […]"}, "[3]": {"system": "release of neurotransmitter amines such as dopamine (DA), norepinephrine and serotonin", "experiment": "Release and liberation of neurotransmitters"}, "[4]": {"molecular_target": "known enzymes which participate in the biosynthesis of 6R-BH4 or enzymes for which 6R-BH4 acts as a coenzyme", "conditions": "enzymes of 6R-BH4 biosynthesis or using 6R-BH4 as coenzyme; cited from earlier work"}, "[5]": {"conditions": "supplementation therapy; cited from earlier work"}}, "data": [{"smiles": "Nc1nc2c(c(=O)[nH]1)NC(CNc1ccc(C(=O)N[C@@H](CCC(=O)O)C(=O)O)cc1)CN2", "note": "(stereo partly drawn) [FAH4, tetrahydrofolic acid]", "values": [{"measurement": "binding ability to the receptor", "setting": "6R-BH4 receptor [1]; competitive binding, solubilized fraction of rat cerebellum", "result": "does not show any substantial binding ability"}]}, {"smiles": "C[C@H](O)[C@H](O)[C@H]1CNc2nc(N)[nH]c(=O)c2N1", "note": "[6R-BH4, 6(R)-L-erythro-5,6,7,8-tetrahydrobiopterin]", "values": [{"measurement": "Bmax (maximum binding constant)", "setting": "6R-BH4 receptor [2]", "result": 550, "unit": "fmol/mg protein"}, {"measurement": "Kd", "setting": "6R-BH4 receptor [2]; 37° C. for 10 minutes, read-out: Kd (dissociation constant)", "result": 21, "unit": "nM"}, {"measurement": "liberation of glutamic acid, aspartic acid or GABA via DA and release of acetylcholine via serotonin", "setting": "[3]", "result": "enhances"}, {"measurement": "release and liberation of neurotransmitter amines such as dopamine (DA), norepinephrine and serotonin", "setting": "[3]", "result": "enhances"}, {"measurement": "Kd for known enzymes", "setting": "[4]", "result": "several ten"}, {"measurement": "treatment of malignant phenylketonuria, juvenile Parkinson's disease and infantile autism of the dysbolism type", "setting": "[5]", "result": "effective"}]}, {"smiles": "C[C@H](O)[C@H](O)[C@@H]1CNc2nc(N)[nH]c(=O)c2N1", "note": "[6S-BH4]", "values": [{"measurement": "affinity of the receptor to 6R-BH4 relative to its affinity to the compound (from IC50 data)", "setting": "6R-BH4 receptor [1]", "result": "> 1,000 times"}]}, {"smiles": "C[C@H](O)[C@H](O)C1=Nc2c(nc(N)[nH]c2=O)NC1", "note": "[BH2, 7,8-dihydrobiopterin]", "values": [{"measurement": "affinity of the receptor to 6R-BH4 relative to its affinity to the compound (from IC50 data)", "setting": "6R-BH4 receptor [1]", "result": "more than 50 times"}]}]}
